Data taken from patent US20030158199A1, “Novel compounds for inhibition of Tie-2” (KYLIX, B.V., priority 2002, published 2003).
Structures can show the parent of a compound that is named as a salt.

Assays:
Format in all cases: biochemical
c-Met = target: T1, c-Met (Homo sapiens, UniProt P08581); experiment: RTK ELISA, recombinant kinase domain, c-Met; conditions: GST-cMet (aa956-1390) expressed in baculovirus infected insect cells
T1 construct: GST-cMet (aa956-1390); GST (N); purchased ProQuinase, Freiburg; host or cells: baculovirus infected insect cells Sf9
T1 sequence (P08581 956-1390): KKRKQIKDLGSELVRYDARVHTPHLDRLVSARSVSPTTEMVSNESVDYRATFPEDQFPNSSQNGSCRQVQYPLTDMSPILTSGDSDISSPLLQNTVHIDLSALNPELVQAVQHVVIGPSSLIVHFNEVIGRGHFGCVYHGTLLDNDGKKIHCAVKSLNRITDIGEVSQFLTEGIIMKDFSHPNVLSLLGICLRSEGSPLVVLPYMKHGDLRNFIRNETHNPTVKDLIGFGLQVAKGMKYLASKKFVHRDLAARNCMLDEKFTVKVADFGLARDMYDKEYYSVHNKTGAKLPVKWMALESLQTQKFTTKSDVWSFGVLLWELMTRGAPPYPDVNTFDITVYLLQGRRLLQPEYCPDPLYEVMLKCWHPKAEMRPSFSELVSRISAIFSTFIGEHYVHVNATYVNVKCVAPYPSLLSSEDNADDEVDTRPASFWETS
Method: (§1) Follwing IC50 values were determined in the RTK ELISA using recombinant kinase domains of receptor tyrosine kinases which were expressed in baculovirus infected insect cells.
(§2) Receptor Tyrosine Kinase Assay
(§3) The following in vitro assays are used to determine the ability of different compounds to inhibit the transfer of phosphate groups onto tyrosine residues of downstream substrates. The level of phosphorylation is measured by a monoclonal antibody which is specific for phosphorylated tyrosine residues in an enzyme-linked immunosorbent assay (ELISA).
(§4) The following recombinant kinases were expressed in baculovirus infected insect cells Sf9 and purchased from ProQuinase, Freiburg:
(§5) If not otherwise indicated all steps are performed at room temperature.
(§6) 1.) Coat wells of ELISA plate with […] Poly-Glu-Tyr 4:1 in 100 μl/well PBS buffer (137 mM NaCl, 3 mM KCl, 1.5 mM KH2PO4, 8.2 mM Na2HPO4) overnight at 4° C.
(§7) 2.) Wash 2 times for 5 min each with PBS+0.05% Tween20 […]
(§8) a) Add 5-30 ng/well kinase in 50 μl/well kinase buffer (100 mM HEPES pH 7.4, 100 mM NaCl, 0.1 mM Na3VO4) b) Add 25 μl/well compound (50 and 5 μM) in 5% DMSO c) Add 25 μl/well 100 μM ATP in 40 mM MnCl2
(§9) 4.) Wash 3 times for 5 min each with PBS+0.05% Tween20
(§10) 5.) Add anti phosphotyrosin antibody/HRP 1:10.000 in 100 μl/well PBS+0.05% Tween+0.1 BSA, incubate for 1 h
(§11) 6.) Wash 3 times for 5 min each with PBS+0.05% Tween20
(§12) 7.) Chemoluminescence reaction: a.) Premix 25 μl/well BM CLS Solution 1 with 0.25 μl/well BM CLS Solution 2 b.) Preincubate for 15 min […]
(§13) d.) Add 50 μl/well substrate solution to microtiter wells e.) Incubate for at least 1 min
(§14) 8.) Detect chemoluminescence signals in Tecan Genios reader

KDR = target: T2, KDR (Homo sapiens, UniProt P35968); experiment: RTK ELISA, recombinant kinase domain, KDR; conditions: GST-KDR (aa807-1356) expressed in baculovirus infected insect cells
T2 construct: GST-KDR (aa807-1356); GST (N); purchased ProQuinase, Freiburg; host or cells: baculovirus infected insect cells Sf9
T2 sequence (P35968 807-1356): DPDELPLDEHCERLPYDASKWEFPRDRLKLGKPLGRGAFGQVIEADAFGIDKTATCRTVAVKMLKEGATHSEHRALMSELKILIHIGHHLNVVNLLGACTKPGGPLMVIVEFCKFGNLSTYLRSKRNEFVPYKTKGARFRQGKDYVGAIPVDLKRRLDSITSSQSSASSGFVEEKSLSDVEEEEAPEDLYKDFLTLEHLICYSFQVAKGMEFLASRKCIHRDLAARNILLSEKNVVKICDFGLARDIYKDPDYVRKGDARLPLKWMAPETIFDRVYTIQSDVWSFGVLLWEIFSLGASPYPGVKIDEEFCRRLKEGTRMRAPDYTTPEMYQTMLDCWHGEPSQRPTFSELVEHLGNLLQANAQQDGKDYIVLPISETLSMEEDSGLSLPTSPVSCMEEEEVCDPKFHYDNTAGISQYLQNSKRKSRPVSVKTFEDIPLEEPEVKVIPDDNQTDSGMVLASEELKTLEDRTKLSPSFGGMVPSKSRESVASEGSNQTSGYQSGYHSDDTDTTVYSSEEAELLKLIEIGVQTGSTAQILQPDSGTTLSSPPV
Method: as §1, §2, §3, §4, §5, §6, §7, §8, §9, §10, §11, §12, §13, §14

Tie-2 = target: T3, Tie-2 (Homo sapiens, UniProt Q02763); experiment: RTK ELISA, recombinant kinase domain, Tie-2; conditions: GST-Tie2/Tek (aa 771-1124) expressed in baculovirus infected insect cells
T3 construct: GST-Tie2/Tek (aa 771-1124); GST (N); purchased ProQuinase, Freiburg; host or cells: baculovirus infected insect cells Sf9
T3 sequence (Q02763 771-1124): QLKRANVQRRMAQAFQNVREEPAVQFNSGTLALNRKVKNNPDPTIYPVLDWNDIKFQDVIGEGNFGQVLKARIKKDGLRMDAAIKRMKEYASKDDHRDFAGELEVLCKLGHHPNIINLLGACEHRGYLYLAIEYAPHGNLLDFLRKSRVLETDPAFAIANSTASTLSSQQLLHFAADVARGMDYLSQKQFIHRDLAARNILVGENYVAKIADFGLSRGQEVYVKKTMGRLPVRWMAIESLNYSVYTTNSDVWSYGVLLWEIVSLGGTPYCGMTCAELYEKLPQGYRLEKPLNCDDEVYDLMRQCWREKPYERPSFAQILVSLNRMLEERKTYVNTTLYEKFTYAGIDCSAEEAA
Method: as §1, §2, §3, §4, §5, §6, §7, §8, §9, §10, §11, §12, §13, §14

| IC50 (c-Met) [µM] | IC50 (KDR) [µM] | IC50 (Tie-2) [µM] | SMILES |
| --- | --- | --- | --- |
| > 50 | 5 | > 50 | CNc1nccs1 [Number 2, methyl-thiazol-2-yl-amine Hydrochloride] |
| > 50 | 3.5 | – | c1ccc(Nc2nccs2)cc1 [Number 3, phenyl-thiazol-2-yl-amine Hydrochloride] |
| > 25 | 5 | > 50 | c1cncc(Nc2nccs2)c1 [Number 4, pyridin-3-yl-thiazol-2-yl-amine Hydrochloride] |
| 5 | 5 | 2.5 | Nc1nc(-c2ccc(N3CCCC3)cc2)cs1 [Number 5, 4-(4-pyrrolidin-1-yl-phenyl)-thiazol-2-ylamine Hydrobromide] |
| > 50 | > 25 | 5 | Nc1nc(-c2ccc(N3CCCC3)cc2)co1 [Number 6, 4-(4-pyrrolidin-1-yl-phenyl)-oxazol-2-ylamine Hydrobromide] |
| > 50 | 7 | 3 | CNc1nc(-c2ccc(N3CCCC3)cc2)cs1 [Number 7, methyl-[4-(4-pyrrolidin-1-yl-phenyl)-thiazol-2-yl]-amine Hydrobromide] |
| > 25 | 2.5 | 5 | c1ccc(Nc2nc(-c3ccc(N4CCCC4)cc3)cs2)cc1 [Number 8, phenyl-[4-(4-pyrrolidin-1-yl-phenyl)-thiazol-2-yl]-amine Hydrobromide] |
| > 25 | > 25 | 2.5 | CN(c1ccccc1)c1nc(-c2ccc(N3CCCC3)cc2)cs1 [Number 9, methyl-phenyl-[4-(4-pyrrolidin-1-yl-phenyl)-thiazol-2-yl]-amine Hydrobromide] |
| > 50 | > 50 | 5 | c1ccc(CNc2nc(-c3ccc(N4CCCC4)cc3)cs2)cc1 [Number 10, benzyl-[4-(4-pyrrolidin-1-yl-phenyl)-thiazol-2-yl]-amine Hydrobromide] |
| – | – | > 50 | c1ccc(CCNc2nc(-c3ccc(N4CCCC4)cc3)cs2)cc1 [Number 11, phenylethyl-[4-(4-pyrrolidin-1-yl-phenyl)-thiazol-2-yl]-amine Hydrobromide] |
| – | – | > 50 | c1ccc(Nc2nc(-c3ccc(N4CCCC4)cc3)cs2)nc1 [Number 12, Hydrobromide] |
| > 10 | 2 | 1 | c1cncc(Nc2nc(-c3ccc(N4CCCC4)cc3)cs2)c1 [Number 13, Hydrobromide] |
| > 25 | > 50 | 5 | c1cncc(-c2nc(-c3ccc(N4CCCC4)cc3)co2)c1 [Number 14, 3-[4-(4-pyrrolidin-1-yl-phenyl)-oxazol-2-yl]-pyridine Hydrobromide] |
| > 10 | 5 | 1 | c1cc(Nc2nc(-c3ccc(N4CCCC4)cc3)cs2)ccn1 [Number 15, pyridin-4-yl-[4-(4-pyrrolidin-1-yl-phenyl)-thiazol-2-yl]-amine Hydrobromide] |
| > 50 | > 50 | > 50 | c1cc(-c2nc(-c3ccc(N4CCCC4)cc3)co2)ccn1 [Number 16, 4-[4-(4-pyrzolidin-1-yl-phenyl)-oxazol-2-yl]-pyridine Hydrobromide] |
| > 25 | > 10 | 2 | O=[N+]([O-])c1ccc(Nc2nc(-c3ccc(N4CCCC4)cc3)cs2)cc1 [Number 17, Dihydrobromide] |
| > 50 | > 10 | > 10 | c1cc(Nc2nc(-c3ccc(N4CCCC4)cc3)cs2)ccc1Nc1nc(-c2ccc(N3CCCC3)cc2)cs1 [Number 18, N,N′-bis-[4-(4-pyrrolidin-1-yl-phenyl)-thiazol-2-yl]-benzene-1,4-diamine Dihydrobromide] |

| IC50 (c-Met) [µM] | IC50 (KDR) [µM] | IC50 (Tie-2) [µM] | SMILES |
| --- | --- | --- | --- |
| > 50 | 2 | 2 | FC(F)(F)c1cccc(Nc2nc(-c3ccc(N4CCCC4)cc3)cs2)c1 [Number 19, [4-(4-pyrrolidin-1-yl-phenyl)-thiazol-2-yl]-(3-trifluoromethyl-phenyl)-amine Hydrobromide] |
| > 10 | 1 | < 1 | O=C(O)c1ccc(Nc2nc(-c3ccc(N4CCCC4)cc3)cs2)cc1 [Number 20, 4-[4-(4-pyrrolidin-1-yl-phenyl)-thiazol-2-ylamino]-benzoic Acid Hydrobromide] |
| > 50 | – | 2.5 | Cc1nc(-c2ccc(N3CCCC3)cc2)cs1 [Number 21, 2-methyl-4-(4-pyrrolidin-1-yl-phenyl)-thiazole Hydrobromide] |
| > 50 | 2 | 5 | CCN(CC)c1ccc(-c2csc(N)n2)cc1 [Number 23, 4-(4-diethylamino-phenyl)-thiazol-2-ylamine Hydrobromide] |
| > 50 | 1.5 | 5 | CCN(CC)c1ccc(-c2coc(N)n2)cc1 [Number 24, 4-(4-diethylamino-phenyl)-oxazol-2-ylamine Hydrobromide] |
| > 50 | 5 | 1 | CCN(CC)c1ccc(-c2csc(NC)n2)cc1 [Number 25, [4-(4-diethylamino-phenyl)-thiazol-2-yl]-methyl-amine Hydrobromide] |
| > 25 | 2 | 2 | CCN(CC)c1ccc(-c2csc(Nc3ccccc3)n2)cc1 [Number 26, [4-(4-Diethylamino-phenyl)-thiazol-2-yl]-phenyl-amine Hydrobromide] |
| > 50 | > 50 | > 50 | CCN(CC)c1ccc(-c2csc(N(C)c3ccccc3)n2)cc1 [Number 27, [4-(4-diethylamino-phenyl)-thiazol-2-yl]-methyl-phenyl-amine Hydrobromide] |
| > 50 | > 50 | > 50 | CCN(CC)c1ccc(-c2csc(NCc3ccccc3)n2)cc1 [Number 28, benzyl-[4-(4-diethylamino-phenyl)-thiazol-2-yl]-amine Hydrobromide] |
| > 50 | > 50 | > 50 | CCN(CC)c1ccc(-c2csc(Nc3ccccn3)n2)cc1 [Number 29, [4-(4-diethylamino-phenyl)-thiazol-2-yl)-pyridin-2-yl-amine Hydrobromide] |
| > 50 | 3 | 0.8 | CCN(CC)c1ccc(-c2csc(Nc3cccnc3)n2)cc1 [Number 30] |
| > 50 | 5 | 3 | CCN(CC)c1ccc(-c2csc(Nc3cccc(C(F)(F)F)c3)n2)cc1 [Number 32, [4-(4-diethylamino-phenyl)-thiazol-2-yl-(3-trifluoromethyl-phenyl)-amine Hydrobromide] |
| > 50 | 5 | 5 | CCN(CC)c1ccc(-c2csc(C)n2)cc1 [Number 33, diethyl-[4-(2-methyl-thiazol-4-yl)-phenyl]-amine Hydrobromide] |
| > 50 | 1.5 | 1.5 | CNc1nc(-c2cnn(-c3ccccc3)c2C)cs1 [Number 34, methyl-[4-(5-methyl-1-phenyl-1H-pyrazol-4-yl)-thiazol-2-yl]-amine Hydrochloride] |
| 2 | 1 | 1 | c1ccc(CCNc2nc(-c3ccccn3)cs2)cc1 [Number 35, phenylethyl-(4-pyridin-2-yl-thiazol-2-yl)-amine Hydrobromide] |
| > 50 | > 10 | > 20 | CNc1nc(-c2ccc(-c3ccccn3)s2)cs1 [Number 36, methyl-[4-(5-pyridin-2-yl-thiophen-2-yl)-thiazol-2-yl]-amine Hydrobromide] |
| > 50 | > 50 | 2.5 | c1ccc(-c2ccc(-c3csc(Nc4cccnc4)n3)s2)nc1 [Number 37, pyridin-3-yl-[(4-(5-pyridin-2-yl-thiophen-2-yl)-thiazol-2-yl]-amine Hydrobromide] |
